Reference: PMC3365763 (The Journal of Biological Chemistry, 2012)
Changes are numbered by the printed parent chain.

Legend:
Format in all cases: biochemical
[1] = target: T1, TG2 (transglutaminase-2, transglutaminase type 2) (Homo sapiens, UniProt P21980, K598S/K600S/K602S/R601S)
T1 sequence (P21980 1-687 K598S/K600S/R601S/K602S): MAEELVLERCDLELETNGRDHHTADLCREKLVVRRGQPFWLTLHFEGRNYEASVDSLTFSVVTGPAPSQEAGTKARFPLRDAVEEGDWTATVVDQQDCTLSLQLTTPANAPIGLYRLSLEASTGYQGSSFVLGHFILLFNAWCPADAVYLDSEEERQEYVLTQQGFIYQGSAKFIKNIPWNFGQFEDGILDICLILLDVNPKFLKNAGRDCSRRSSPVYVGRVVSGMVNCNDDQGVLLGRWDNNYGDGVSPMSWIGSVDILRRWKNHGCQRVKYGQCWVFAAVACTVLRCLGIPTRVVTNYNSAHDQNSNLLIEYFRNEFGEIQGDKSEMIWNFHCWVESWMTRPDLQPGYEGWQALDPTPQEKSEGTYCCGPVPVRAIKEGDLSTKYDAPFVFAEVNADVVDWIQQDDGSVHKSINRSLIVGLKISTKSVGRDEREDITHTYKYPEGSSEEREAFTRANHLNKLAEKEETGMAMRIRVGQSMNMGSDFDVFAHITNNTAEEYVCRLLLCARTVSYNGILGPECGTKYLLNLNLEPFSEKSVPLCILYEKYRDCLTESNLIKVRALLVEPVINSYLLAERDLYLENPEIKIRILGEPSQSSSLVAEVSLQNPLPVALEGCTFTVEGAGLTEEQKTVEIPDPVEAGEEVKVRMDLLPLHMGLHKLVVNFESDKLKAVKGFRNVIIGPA

[2] = target: T2, TG2 (transglutaminase-2, transglutaminase type 2) (Homo sapiens, UniProt P21980, R19S)
T2 sequence (P21980 1-687 R19S): T1 sequence (P21980 1-687 K598S/K600S/R601S/K602S) with R19S, S598K, S600K, S601R, S602K

[3] = target: T3, TG2 (transglutaminase-2, transglutaminase type 2) (Homo sapiens, UniProt P21980)
T3 sequence (P21980 1-687): T1 sequence (P21980 1-687 K598S/K600S/R601S/K602S) with S598K, S600K, S601R, S602K

[4] = target: T4, TG2 (transglutaminase-2, transglutaminase type 2) (Homo sapiens, UniProt P21980, K202S/K205S)
T4 sequence (P21980 1-687 K202S/K205S): T1 sequence (P21980 1-687 K598S/K600S/R601S/K602S) with K202S, K205S, S598K, S600K, S601R, S602K

IC50 [1]: 148 ± 26 µM
IC50 [2]: 254 ± 8 µM
IC50 [3]: 142 ± 24 µM
IC50 [4]: 145 ± 23 µM
SMILES: Nc1nc2c(ncn2[C@@H]2O[C@H](COP(=O)(O)OP(=O)(O)OP(=O)(O)O)[C@@H](O)[C@H]2O)c(=O)[nH]1 [GTP]
